Assay results from patent US10077436B2, “Beta-glucosidase enzymes for increased biomass saccharification” (Edeniq, Inc., priority 2013, dated 2018).

How the values were obtained:
[1] = system: A-BG (Accellerase® BG from DuPont), commercial beta-glucosidase; experiment: BG kinetics, pNPG hydrolysis assay with glucose as competitive inhibitor, A-BG; assay type: biochemical
Method: The kinetic properties of beta glucosidase are important for cellulosic hydrolysis, since in commercial situations a wide range of substrate concentrations and different product inhibition conditions will be encountered. In this example, a Michaelis-Menten kinetics model was used to describe BG kinetics.
(§1) One pNPG unit is defined as the amount of enzyme that produces 1 μmol of pNP per min. Briefly, to determine BG activity, 25 μL of diluted enzyme in 200 mM sodium acetate buffer (pH 5.0) was mixed with 25 μL of the same buffer and 25 μL of RO water (or glucose solution for the kinetic study) and the mixture was preincubated at 50° C. for 5 min. The reaction was initiated by adding 25 μL of 10 mM pNPG in 200 mM sodium acetate buffer (pH 5.0) and the mixture was incubated at 50° C. for 10 min. The reaction was then terminated by adding 100 μL of 0.25 M sodium carbonate, and the amount of pNP produced was determined by measuring absorbance at 405 nm using a predetermined calibration curve.
The range of substrate concentration was chosen to show detectable activity at the lowest concentration and saturation stage at high substrate concentration.
(§2) To determine the kinetic properties, a competitive inhibition mechanism was hypothesized as proposed in the literature (Chauve et al, 2010; Krogh et al, 2010). The Michaelis-Menten equation with the competitive inhibition term can be expressed in Equation (1), where [S] is the substrate concentration (mM), [I] is the inhibitor concentration (mM), V is the rate of product formation (mM/min), Vmax is the maximal rate of product formation (mM/min), Km is the Michaelis-Menten constant and Ki is the inhibition constant. The turnover number, Kcat, can be calculated by Equation (2), where [Et] is the total amount of enzyme.
(§3) Conventionally, linearization methods can be used to determine the kinetic parameters based on Equation (1). Three common linear plots used are Lineweaver-Burke, Eadie-Hofstee and Hanes plots (Rogers and Gibon, 2009). However, these linearized versions of the Michaelis-Menten equation often produce substantial errors in parameter estimation. […] All of the activity data at different substrate levels and different inhibitor levels were fit simultaneously according to the full nonlinear equation for competitive enzyme inhibition as expressed in Equation (1). Thus, Vmax, Km and Ki can be determined simultaneously from this fitting process, and Km/Ki can then be calculated. Kcat can be obtained by Equation (2) and Kcat/Km can be calculated accordingly.
The above experimental data were fit in the competitive inhibition model as expressed in Equation (1) by simultaneous nonlinear regression.

[2] = system: S-BG (Novozymes SP188 from Sigma), commercial beta-glucosidase; experiment: BG kinetics, pNPG hydrolysis assay with glucose as competitive inhibitor, S-BG; assay type: biochemical; settings: pH 5.0, 50° C.
From the text: The kinetic properties of beta glucosidase are important for cellulosic hydrolysis, since in commercial situations a wide range of substrate concentrations and different product inhibition conditions will be encountered. In this example, a Michaelis-Menten kinetics model was used to describe BG kinetics. To determine these kinetic properties, BG activity assays using standard substrates pNPG and cellobiose were employed. yEdQ745-BG (wild type) and yEdQ885-BG (improved), were compared with two commercial BGs, A-BG (Accellerase®) BG from Dupont) and S-BG (Novozymes SP188 from Sigma).
as §1, with “BG activity assay using pNPG is one of the two commonly used standard assays to measure BG activity, which utilizes hydrolysis of p-nitrophenyl-β-D-glucopyranoside (pNPG) by BG into a yellow colored product, p-nitrophenol (pNP), that has a strong absorbance at 405 nm. One” for “One”
The range of substrate concentration was chosen to show detectable activity at the lowest concentration and saturation stage at high substrate concentration. The upper limit of inhibitor (glucose) level was chosen to get as close as possible to the real conditions during saccharification (˜4% w/v glucose) and have a detectable residual activity.
as §2, §3
The above experimental data were fit in the competitive inhibition model as expressed in Equation (1) by simultaneous nonlinear regression. The order of maximum velocity (Vmax) is A-BG>yEdQ885-BG>S-BG≈yEdQ745-BG. […] Nevertheless, the in-house BGs have much higher dissociation constant for inhibitor (Ki), indicating higher tolerance to product inhibition. Consistent with Vmax, the order of turnover number (Kcat) is A-BG>yEdQ885-BG>S-BG≈yEdQ745-BG. With much lower Km and much higher Kcat, A-BG has a considerably higher catalytic efficiency (Kcat/Km) than the other enzymes. The catalytic efficiency of S-BG and yEdQ885-BG is quite close, which is higher than that of yEdQ745-BG. […]

OC[C@H]1OC(O)[C@H](O)[C@@H](O)[C@@H]1O (stereo partly shown) [glucose]
loss of activity under glucose inhibition ([1]; 9 g/L initial glucose, 0.08 mM pNPG): lost activity completely
maximum relative activity under glucose inhibition ([1]; 36 g/L initial glucose, high pNPG concentration, relative to maximum activity without glucose): 1.5%
loss of activity under glucose inhibition ([1]; 36 g/L initial glucose, pNPG below 1.875 mM): activity was completely lost
Km/Ki ([1]; inhibitor influence, Km for pNPG / Ki for glucose, pH 5.0, 50° C.): 0.22
Ki ([1]; pNPG substrate, competitive inhibition, pH 5.0, 50° C.): 460 ± 50 µM
Km/Ki ([2]; inhibitor influence, Km for pNPG / Ki for glucose): 0.52
Ki ([2]; pNPG substrate, competitive inhibition): 810 ± 110 µM
